This series in a line: Water solubility by adding distilled water in portions until a clear solution. Format: physicochemical. The conditions noted are these: thermodynamic from solid. The protocol: The Solubility of the Compound of amino(3,3-dimethylguanidino)methaniminium (S)-2-((5Z,8Z,11Z,14Z,17Z)-icosa-5,8,11,14,17-pentaenamido)-4-methylpentanoate, Example-1 in Water was Compared with that of Eicosapentaenoic Acid (EPA) Measurement of the water solubility of the test compound was accomplished by using methods well known to those skilled in the art. Specifically, to a weighed amount of the test compounds of Example-1 and EPA were taken in separate vials; distilled water was added in small portions until a clear solution was obtained. The water solubility is calculated by dividing the weight of salt, in mg, by the volume of the solution, in mL. The water solubility of the compounds of example-1 compared to EPA alone were as follows: […]

SMILES strings stand for the structures. Converted amounts (≈) assume the structure as drawn. Where two headings read alike, the source gives them in different places.

By solubility is commonly meant the concentration that dissolves in the medium under given conditions. Turning to `CC/C=C\C/C=C\C/C=C\C/C=C\C/C=C\CCCC(=O)O` [EPA, eicosapentaenoic acid], the solubility (distilled water, weight of salt in mg divided by volume of solution in mL, read-out: water solubility) was under 0.3 mg/mL. Consider `CC/C=C\C/C=C\C/C=C\C/C=C\C/C=C\CCCC(=O)N[C@@H](CC(C)C)C(=O)O` [Example-1, amino(3,3-dimethylguanidino)methaniminium (S)-2-((5Z,8Z,11Z,14Z,17Z)-icosa-5,8,11,14,17-pentaenamido)-4-methylpentanoate], for which the solubility (water) came to 118 mg/mL (≈ 284 mM).

Values taken from patent US20160244405A1, “COMPOSITIONS AND METHODS FOR THE TREATMENT OF HYPERGLYCEMIA AND METABOLIC SYNDROME” (priority 2015, published 2016).
